Laboratory results taken from ChEMBL document CHEMBL3045684, “Compatibility of traditional and novel acaricides with bumblebees (Bombus terrestris): a first laboratory assessment of toxicity and sublethal effects” (Pest Manag Sci, 2010).
Active and inactive are the calls of the source. The calls are words filed in the database; no cut-off is given here.

Tests used:
Bombus terrestris [1] = experiment: Contact toxicity against worker Bombus terrestris (bumblebee) assessed as reduction in reproduction at 240 mg a.i./l applied on the dorsal thorax for 11 weeks measured once a week for 11 weeks relative to control; assay type: functional, organism-based
Apis mellifera [2] = experiment: Contact toxicity against Apis mellifera (honey bee) assessed per bee; assay type: functional
Apis mellifera [3] = experiment: Toxicity against Apis mellifera (honey bee) assessed per bee; assay type: functional
Bombus terrestris [4] = experiment: Toxicity against worker Bombus terrestris (bumblebee) assessed as mortality at 240 mg a.i./l, po administered through pollen for 11 weeks measured everyday for 3 days followed by once a week for 11 weeks; assay type: functional
Bombus terrestris [5] = experiment: Toxicity against worker Bombus terrestris (bumblebee) assessed as mortality at 240 mg a.i./l, po administered through pollen measured after 8 weeks; assay type: functional; conditions: 1344 h
Bombus terrestris [6] = experiment: Toxicity against worker Bombus terrestris (bumblebee) assessed as mortality at 240 mg a.i./l, po administered through pollen measured after 5 weeks; assay type: functional; conditions: 840 h
Bombus terrestris [7] = experiment: Contact toxicity against Bombus terrestris (bumblebee) assessed per bee; assay type: functional
Bombus terrestris [8] = experiment: Contact toxicity against worker Bombus terrestris (bumblebee) assessed as mortality at 240 mg a.i./l applied on the dorsal thorax for 11 weeks measured everyday for 3 days followed by once a week for 11 weeks; assay type: functional
Bombus terrestris [9] = experiment: Toxicity against worker Bombus terrestris (bumblebee) assessed as reduction in reproduction at 240 mg a.i./l, po administered through sugar water for 11 weeks measured once a week for 11 weeks relative to control; assay type: functional, organism-based
Bombus terrestris [10] = experiment: Toxicity against worker Bombus terrestris (bumblebee) assessed as mortality at 240 mg a.i./l, po administered through sugar water for 11 weeks measured everyday for 3 days followed by once a week for 11 weeks; assay type: functional
Bombus terrestris [11] = experiment: Toxicity against worker Bombus terrestris (bumblebee) assessed as reduction in reproduction at 240 mg a.i./l, po administered through pollen for 11 weeks measured once a week for 11 weeks; assay type: functional, organism-based
Bombus terrestris [12] = experiment: Toxicity against worker Bombus terrestris (bumblebee) assessed as mortality at 240 mg a.i./l, po administered through sugar water measured up to 1 week; assay type: functional, organism-based
Bombus terrestris [13] = experiment: Contact toxicity against worker Bombus terrestris (bumblebee) assessed as reduction in reproduction at 55 mg a.i./l applied on the dorsal thorax for 11 weeks measured once a week for 11 weeks relative to control; assay type: functional, organism-based
Bombus terrestris [14] = experiment: Toxicity against worker Bombus terrestris (bumblebee) assessed as reduction in reproduction at 55 mg a.i./l, po administered through pollen for 11 weeks measured once a week for 11 weeks; assay type: functional; parameters: scale not given: the % may be the effect or the level left
Bombus terrestris [15] = experiment: Toxicity against po dosed worker Bombus terrestris (bumblebee) administered through sugar water for 11 weeks measured everyday for 3 days followed by once a week for 11 weeks; assay type: functional
Bombus terrestris [16] = experiment: Toxicity against worker Bombus terrestris (bumblebee) assessed as mortality at 55 mg a.i./l, po administered through pollen for 11 weeks measured everyday for 3 days followed by once a week for 11 weeks; assay type: functional, organism-based
Bombus terrestris [17] = experiment: Toxicity against worker Bombus terrestris (bumblebee) assessed as mortality at 55 mg a.i./l, po administered through sugar water for 11 weeks measured everyday for 3 days followed by once a week for 11 weeks; assay type: functional
Bombus terrestris [18] = experiment: Toxicity against worker Bombus terrestris (bumblebee) assessed as mortality at 55 mg a.i./l, po administered through sugar water measured after 9 to 11 weeks; assay type: functional, organism-based
Bombus terrestris [19] = experiment: Toxicity against worker Bombus terrestris (bumblebee) assessed as reduction in reproduction at 55 mg a.i./l, po administered through sugar water for 11 weeks measured once a week for 11 weeks relative to control; assay type: functional, organism-based
Bombus terrestris [20] = experiment: Contact toxicity against worker Bombus terrestris (bumblebee) assessed as mortality at 55 mg a.i./l applied on the dorsal thorax for 11 weeks measured everyday for 3 days followed by once a week for 11 weeks; assay type: functional
Bombus terrestris [21] = experiment: Toxicity against worker Bombus terrestris (bumblebee) assessed as mortality at 18 mg a.i./l, po administered through sugar water measured after 7 weeks; assay type: functional; conditions: 1176 h
Bombus terrestris [22] = experiment: Toxicity against worker Bombus terrestris (bumblebee) assessed as mortality at 18 mg a.i./l, po administered through sugar water measured after 9 weeks; assay type: functional; conditions: 1512 h
Bombus terrestris [23] = experiment: Contact toxicity against worker Bombus terrestris (bumblebee) assessed as mortality at 18 mg a.i./l applied on the dorsal thorax measured after 3 to 4 weeks; assay type: functional, organism-based
Bombus terrestris [24] = experiment: Toxicity against worker Bombus terrestris (bumblebee) assessed as mortality at 18 mg a.i./l, po administered through sugar water measured after 11 weeks; assay type: functional; conditions: 1848 h
Apis mellifera [25] = experiment: Contact toxicity against Apis mellifera (honey bee) assessed per bee after 24 hr; assay type: functional
Bombus terrestris [26] = experiment: Toxicity against worker Bombus terrestris (bumblebee) assessed as mortality at 18 mg a.i./l, po administered through pollen measured after 3 weeks; assay type: functional; conditions: 504 h
Bombus terrestris [27] = experiment: Toxicity against worker Bombus terrestris (bumblebee) assessed as mortality at 18 mg a.i./l, po administered through pollen for 11 weeks measured everyday for 3 days followed by once a week for 11 weeks; assay type: functional
Bombus terrestris [28] = experiment: Toxicity against worker Bombus terrestris (bumblebee) assessed as mortality at 18 mg a.i./l, po administered through sugar water measured after 1 week; assay type: functional; conditions: 168 h
Bombus terrestris [29] = experiment: Contact toxicity against worker Bombus terrestris (bumblebee) assessed as mortality at 18 mg a.i./l applied on the dorsal thorax for 11 weeks measured everyday for 3 days followed by once a week for 11 weeks; assay type: functional
Aphidius colemani = experiment: Contact toxicity against Aphidius colemani assessed as mortality at 8.5 mg a.i./l; assay type: functional
Bombus terrestris [30] = experiment: Toxicity against worker Bombus terrestris (bumblebee) assessed as mortality at 18 mg a.i./l, po administered through sugar water for 11 weeks measured everyday for 3 days followed by once a week for 11 weeks; assay type: functional
Bombus terrestris [31] = experiment: Contact toxicity against worker Bombus terrestris (bumblebee) assessed as reduction in reproduction at 18 mg a.i./l applied on the dorsal thorax for 11 weeks measured once a week for 11 weeks relative to control; assay type: functional, organism-based
Bombus terrestris [32] = experiment: Toxicity against worker Bombus terrestris (bumblebee) assessed as mortality at 18 mg a.i./l, po administered through pollen measured after 7 weeks; assay type: functional; conditions: 1176 h
Apis mellifera [33] = experiment: Toxicity against po dosed Apis mellifera (honey bee) assessed per bee after 24 hr; assay type: functional
Bombus terrestris [34] = experiment: Toxicity against worker Bombus terrestris (bumblebee) assessed as reduction in reproduction at 18 mg a.i./l, po administered through pollen for 11 weeks measured once a week for 11 weeks; assay type: functional, organism-based
Bombus terrestris [35] = experiment: Toxicity against worker Bombus terrestris (bumblebee) assessed as mortality at 125 mg a.i./l, po administered through sugar water for 11 weeks measured everyday for 3 days followed by once a week for 11 weeks; assay type: functional
Bombus terrestris [36] = experiment: Toxicity against worker Bombus terrestris (bumblebee) assessed as mortality at 125 mg a.i./l, po administered through pollen for 11 weeks measured everyday for 3 days followed by once a week for 11 weeks; assay type: functional, organism-based
Bombus terrestris [37] = experiment: Toxicity against worker Bombus terrestris (bumblebee) assessed as reduction in reproduction at 125 mg a.i./l, po administered through sugar water for 11 weeks measured once a week for 11 weeks relative to control; assay type: functional, organism-based
Bombus terrestris [38] = experiment: Contact toxicity against worker Bombus terrestris (bumblebee) assessed as mortality at 125 mg a.i./l applied on the dorsal thorax for 11 weeks measured everyday for 3 days followed by once a week for 11 weeks; assay type: functional
Bombus terrestris [39] = experiment: Contact toxicity against worker Bombus terrestris (bumblebee) assessed as reduction in reproduction at 125 mg a.i./l applied on the dorsal thorax for 11 weeks measured once a week for 11 weeks relative to control; assay type: functional, organism-based
Bombus terrestris [40] = experiment: Toxicity against worker Bombus terrestris (bumblebee) assessed as reduction in reproduction at 125 mg a.i./l, po administered through pollen for 11 weeks measured once a week for 11 weeks; assay type: functional, organism-based

SMILES: CCOCn1c(-c2ccc(Cl)cc2)c(C#N)c(Br)c1C(F)(F)F [CHLORFENAPYR]
- Activity (Bombus terrestris [1]): inactive
- LD50 (Apis mellifera [2]): <1 µg
- LD50 (Apis mellifera [3]): 0.2 µg
- mortality at 240 µg/mL (Bombus terrestris [4]): 90%
- mortality at 240 µg/mL (Bombus terrestris [5]): 90%
- mortality at 240 µg/mL (Bombus terrestris [6]): 50%
- LD50 (Bombus terrestris [7]): >100 µg
- mortality at 240 µg/mL (Bombus terrestris [8]): < 25%
- Activity (Bombus terrestris [9]): Active
- mortality at 240 µg/mL (Bombus terrestris [10]): 95%
- Activity (Bombus terrestris [11]): Active
- Activity (Bombus terrestris [12]): Active

SMILES: CCOc1cc(C(C)(C)C)ccc1C1COC(c2c(F)cccc2F)=N1 (centres undefined) [ETOXAZOLE]
- Activity (Bombus terrestris [13]): Active
- Activity (Bombus terrestris [14]): 25%
- LC50 (Bombus terrestris [15]): 4.4 mgAi/L
- NOAEL (Bombus terrestris [15]): 0.55 mgAi/L
- Activity (Bombus terrestris [16]): inactive
- mortality at 55 µg/mL (Bombus terrestris [17]): 95%
- Activity (Bombus terrestris [18]): Active
- Activity (Bombus terrestris [19]): Active
- mortality at 55 µg/mL (Bombus terrestris [20]): < 25%

SMILES: CC[C@H](C)[C@H]1O[C@]2(C=C[C@@H]1C)C[C@@H]1C[C@@H](C/C=C(\C)[C@@H](O[C@H]3C[C@H](OC)[C@@H](O[C@H]4C[C@H](OC)[C@@H](O)[C@H](C)O4)[C@H](C)O3)[C@@H](C)/C=C/C=C3\CO[C@@H]4[C@H](O)C(C)=C[C@@H](C(=O)O1)[C@]34O)O2.CO[C@H]1C[C@H](O[C@H]2[C@H](C)O[C@@H](O[C@@H]3/C(C)=C/C[C@@H]4C[C@@H](C[C@]5(C=C[C@H](C)[C@@H](C(C)C)O5)O4)OC(=O)[C@@H]4C=C(C)[C@@H](O)[C@H]5OC/C(=C\C=C\[C@@H]3C)[C@]54O)C[C@@H]2OC)O[C@@H](C)[C@@H]1O [ABAMECTIN]
- mortality at 18 µg/mL (Bombus terrestris [21]): 40%
- mortality at 18 µg/mL (Bombus terrestris [22]): 80%
- Activity (Bombus terrestris [23]): Active
- mortality at 18 µg/mL (Bombus terrestris [24]): 100%
- LD50 (Apis mellifera [25]): 0.002 µg
- mortality at 18 µg/mL (Bombus terrestris [26]): 40%
- mortality at 18 µg/mL (Bombus terrestris [27]): 90%
- mortality at 18 µg/mL (Bombus terrestris [28]): 20%
- LC50 (Bombus terrestris [15]): 1.17 mgAi/L
- NOAEL (Bombus terrestris [15]): 0.18 mgAi/L
- mortality at 18 µg/mL (Bombus terrestris [29]): 100%
- mortality at 8.5 µg/mL (Aphidius colemani): 100%
- mortality at 18 µg/mL (Bombus terrestris [30]): 95%
- Activity (Bombus terrestris [31]): Active
- mortality at 18 µg/mL (Bombus terrestris [32]): 60%
- LD50 (Apis mellifera [33]): 0.009 µg
- Activity (Bombus terrestris [34]): Active

SMILES: O=C(NC(=O)c1c(F)cccc1F)Nc1ccc(CO/N=C(/c2ccc(Cl)cc2)C2CC2)cc1 [FLUCYCLOXURON]
- mortality at 125 µg/mL (Bombus terrestris [35]): 25%
- Activity (Bombus terrestris [36]): inactive
- Activity (Bombus terrestris [37]): inactive
- mortality at 125 µg/mL (Bombus terrestris [38]): < 25%
- Activity (Bombus terrestris [39]): Active
- Activity (Bombus terrestris [40]): Active
